From ChEMBL document CHEMBL1134784, “Synthesis and screening for antiacetylcholinesterase activity of (1-benzyl-4-oxopiperidin-3-ylidene)methylindoles and -pyrroles related to donepezil” (J Med Chem, 2001)

Target: Acetylcholinesterase (Homo sapiens, UniProt P22303)
Sequence (P22303 whole entry): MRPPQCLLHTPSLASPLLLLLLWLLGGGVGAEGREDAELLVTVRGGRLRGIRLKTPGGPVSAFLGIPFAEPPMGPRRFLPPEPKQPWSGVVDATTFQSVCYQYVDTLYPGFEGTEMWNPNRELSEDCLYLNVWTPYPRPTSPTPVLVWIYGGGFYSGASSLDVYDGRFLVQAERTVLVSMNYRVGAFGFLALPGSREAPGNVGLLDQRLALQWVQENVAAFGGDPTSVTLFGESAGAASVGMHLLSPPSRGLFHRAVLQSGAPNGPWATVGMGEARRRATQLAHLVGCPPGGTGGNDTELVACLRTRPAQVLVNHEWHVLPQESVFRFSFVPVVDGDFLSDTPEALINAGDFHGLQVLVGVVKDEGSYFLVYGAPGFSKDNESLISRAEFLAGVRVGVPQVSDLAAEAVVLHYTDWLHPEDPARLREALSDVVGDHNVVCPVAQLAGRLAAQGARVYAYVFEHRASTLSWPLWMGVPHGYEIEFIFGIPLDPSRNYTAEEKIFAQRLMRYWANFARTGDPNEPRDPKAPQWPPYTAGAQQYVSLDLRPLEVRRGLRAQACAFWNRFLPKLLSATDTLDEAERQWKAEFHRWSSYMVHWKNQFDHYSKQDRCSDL
Description: Inhibitory concentration required against acetylcholinesterase activity

SMILES	IC50
O=C1CCN(Cc2ccccc2)C/C1=C\c1c[nH]c2ccccc12	8 µM
O=C1CCN(Cc2ccccc2)C/C1=C\c1cn(C(=O)c2ccc([N+](=O)[O-])cc2)c2ccccc12	50 µM
O=C1CCN(Cc2ccccc2)C/C1=C\c1cccn1C(=O)c1ccccc1	30 µM
CC(=O)n1cc(/C=C2\CN(Cc3ccccc3)CCC2=O)c2ccccc21	11 µM
Cc1[nH]c(C)c(/C=C2\CN(Cc3ccccc3)CCC2=O)c1C=O	30 µM
O=C1CCN(Cc2ccccc2)C/C1=C\c1cn(C(=O)c2ccccc2)c2ccccc12	70 µM
O=C1CCN(Cc2ccccc2)C/C1=C\c1cn(C(=O)c2ccc(F)cc2)c2ccccc12	60 µM
COc1ccc2c(c1)c(/C=C1\CN(Cc3ccccc3)CCC1=O)cn2C(=O)c1ccccc1	80 µM
O=C1CCN(Cc2ccccc2)C/C1=C\c1ccn(C(=O)c2ccccc2)c1	30 µM
N#Cc1ccc(C(=O)n2cc(/C=C3\CN(Cc4ccccc4)CCC3=O)c3ccccc32)cc1	20 µM
COc1ccc2[nH]cc(/C=C3\CN(Cc4ccccc4)CCC3=O)c2c1	6 µM
O=C1CCN(Cc2ccccc2)C/C1=C\c1ccc[nH]1	11 µM
COc1ccc(C(=O)n2cc(/C=C3\CN(Cc4ccccc4)CCC3=O)c3ccccc32)cc1	70 µM
O=C1CCN(Cc2ccccc2)C/C1=C\c1cn(C(=O)c2ccc(Cl)cc2)c2ccccc12	50 µM
O=C1CCN(Cc2ccccc2)C/C1=C\c1c[nH]c2ccc(OCc3ccccc3)cc12	25 µM
O=C1/C(=C/c2ccc[nH]2)CN(Cc2ccccc2)C/C1=C\c1ccc[nH]1	18 µM
CC(C)(C)OC(=O)n1cc(/C=C2\CN(Cc3ccccc3)CCC2=O)c2ccccc21	30 µM
O=C1CCN(Cc2ccccc2)C/C1=C\c1cc[nH]c1	6 µM
O=C1/C(=C/c2cc[nH]c2)CN(Cc2ccccc2)C/C1=C\c1cc[nH]c1	6 µM
O=C1CCN(Cc2ccccc2)C/C1=C\c1cn(Cc2ccccc2)c2ccccc12	> 100 µM
